From BindingDB's records for doi:10.1016/j.ejmech.2017.02.022 (Svkm'S Dr. Bhanuben Nanavati College of Pharmacy, 2017)

Test: Inhibition of ABCB1 in human MCF7/ADR cells assessed as potentiation of vinblastine-induced cytotoxicity by measuring vinblastine IC50 at IC10 after 7 days by SRB assay

SMILES | IC50 [nM]
Cc1cc(C)c2c(c1)c(=O)c1ccccc1n2CCCCN1CCN(CCO)CC1 | 1.3
Cc1cc(C)c2c(c1)c(=O)c1ccccc1n2CCCN1CCOCC1 | 20
Cc1cc(C)c2c(c1)c(=O)c1ccccc1n2CCCN(CCO)CCO | 11
Cc1cc(C)c2c(c1)c(=O)c1ccccc1n2CCCCN(CCO)CCO | 3.1
CCN(CC)CCCn1c2ccccc2c(=O)c2cc(C)cc(C)c21 | 14
Cc1cc(C)c2[nH]c3ccccc3c(=O)c2c1 | 27
Cc1cc(C)c2c(c1)c(=O)c1ccccc1n2CCCN1CCCCC1 | 17
Cc1cc(C)c2c(c1)c(=O)c1ccccc1n2CCCCN1CCOCC1 | 4
Cc1cc(C)c2c(c1)c(=O)c1ccccc1n2CCCN1CCN(C)CC1 | 17
Cc1cc(C)c2c(c1)c(=O)c1ccccc1n2CCCN1CCN(CCO)CC1 | 8
CCN(CC)CCCCn1c2ccccc2c(=O)c2cc(C)cc(C)c21 | 4.1
Cc1cc(C)c2c(c1)c(=O)c1ccccc1n2CCCCN1CCN(C)CC1 | 10
Cc1cc(C)c2c(c1)c(=O)c1ccccc1n2CCCCN1CCCCC1 | 5
